Laboratory results published in US20230105212A1, “BIPHENYL DERIVATIVE INHIBITOR, PREPARATION METHOD THEREFOR AND USE THEREOF” (SHANGHAI HANSOH BIOMEDICAL CO., LTD., priority 2020, published 2023).
Where two headings read alike, the source gives them in different places.

Experiments:
[1] = molecular target: T1, human PD-L1 protein (Homo sapiens, UniProt Q9NZQ7); assay: Thermal shift: melting temperature of PD-L1 protein; format: binding; details: read-out: ΔTm (° C.)
T1 construct: purchased Acro Biosystems PD1-H5229
T1 sequence (Q9NZQ7 19-238 limits assumed): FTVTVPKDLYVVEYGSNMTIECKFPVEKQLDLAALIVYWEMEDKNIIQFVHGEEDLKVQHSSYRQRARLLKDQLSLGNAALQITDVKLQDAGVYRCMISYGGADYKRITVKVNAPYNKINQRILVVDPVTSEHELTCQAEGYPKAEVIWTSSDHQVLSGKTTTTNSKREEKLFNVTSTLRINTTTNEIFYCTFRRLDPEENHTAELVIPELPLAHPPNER
Procedure: Test Embodiment 4. Test of Combination of the Compounds of the Present Disclosure to Improve the Stability (Melting Temperature) of PD-L1 Protein Experimental purpose: To test the ability of compounds to enhance the stability of PD-L1 protein and increase the melting temperature of the protein. Experimental method: […] A solution containing […] HEPES, SYPRO Orange, and 150 mM NaCl was prepared as experimental buffer, and human PD-L1 protein was added at a final concentration of 2 μM. […] PCR tube was put into the PCR machine, and the melt curve function was selected to detect the melting temperature of PD-L1 protein in different treatment groups (heated from 25° C. to 95° C., 0.03° C./s). The experimental data file of the PCR instrument was imported into the thermal shift software to obtain the melting temperature (Tm) of each treatment group, and the Tm of the DMSO vehicle control group was subtracted to obtain the change value (ΔTm) of the melting temperature, as shown in the following table: […]

[2] = molecular target: T2, PD-L1 protein on the surface of MC38-hPDL1 tumor cells (Homo sapiens, UniProt Q9NZQ7); assay: Induction of endocytosis of PD-L1 on the surface of tumor cells (flow cytometry); format: cell-based; details: 16 hours incubation; for Emax: MC38-hPDL1 cells, read-out: MC38 maximum endocytosis rate; for IC50: inducing endocytosis of PD-L1, MC38-hPDL1 cells, read-out: MC38 IC50
T2 construct: expressed in transfected cells; host or cells: MC38-hPDL1 (mouse colon cancer cells)
T2 sequence (Q9NZQ7 19-290): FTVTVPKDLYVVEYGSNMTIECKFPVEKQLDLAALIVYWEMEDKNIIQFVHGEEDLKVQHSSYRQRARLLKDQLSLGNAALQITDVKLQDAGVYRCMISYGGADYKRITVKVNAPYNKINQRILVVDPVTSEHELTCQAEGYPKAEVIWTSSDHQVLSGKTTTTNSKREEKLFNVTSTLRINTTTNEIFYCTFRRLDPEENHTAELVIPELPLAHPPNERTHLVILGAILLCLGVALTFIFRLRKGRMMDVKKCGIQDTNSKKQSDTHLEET
Summary of the method: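 IC50 comes from nonlinear fits of endocytosis rate, calculated from the loss of surface PE-anti-CD274 flow signal relative to vehicle. Cells were MC38 mouse colon cancer cells engineered to express high human PD-L1. Compound exposure lasted 16 h at 37 °C, 5% CO2.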

[3] = molecular target: T3, human PD-1/PD-L1 binding (Homo sapiens, UniProt Q9NZQ7); assay: Inhibition of human PD-1/PD-L1 binding (TR-FRET/HTRF); details: TR-FRET, PD-L1-His and PD-1-Fc; read-out: PD-1/PD-L1 binding IC50
T3 construct: PD-L1-His protein (19 to 238 amino acids) (Abcam #ab167713); purchased Abcam (PD-L1-His); R&D (PD-1-Fc) ab167713; 1086-PD
T3 sequence (Q9NZQ7 19-238): as the sequence (Q9NZQ7 19-238 limits assumed) above
Summary of the method: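 PD-L1-His (aa 19–238, diluted to 10 nM) and PD-1-Fc (aa 25–167, diluted to 20 nM) incubated with compounds (10 μM or 1 μM top, 3-fold, 11 doses) 60 min at room temperature, then anti-6HIS Eu cryptate/anti-human IgG-XL665 added for 3 h RT or overnight 4 °C. HTRF 665/620 nm ratio gave inhibition and IC50.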

[4] = compound 10 μM, PD-L1 protein 2 μM, Tm minus DMSO vehicle control

SMILES	Emax [2] [%]	IC50 [2] [nM]	IC50 [3] [nM]	ΔTm at 10 µM [1, 4] [°C]	ΔTm at 10 µM [1] [°C]
COc1nc(-c2cccc(-c3cccc(NC(=O)c4nc5c(n4C)CCN(C)C5)c3Cl)c2Cl)ccc1CN1CC(O)C1 [Embodiment 129, N-(2,2′-Dichloro-3′-(5-((3-hydroxyazetidin-1-yl)methyl)-6-methoxypyridin-2-yl)-[1,1′-biphenyl]-3-yl)-1,5-dimethyl-4,5,6,7-tetrahydro-1H-imidazo[4,5-c]pyridine-2-carboxamide]	95	1	2.9		13.9
COc1nc(-c2cccc(-c3cccc(NC(=O)c4nc5c(n4C)CCN(C)C5)c3Cl)c2Cl)ccc1CN1CC[C@H]1CO [Embodiment 172, (S)—N-(2,2′-Dichloro-3′-(5-((2-(hydroxymethyl)azetidin-1-yl)methyl)-6-methoxypyridin-2-yl)-[1,1′-biphenyl]-3-yl)-1,5-dimethyl-4,5,6,7-tetrahydro-1H-imidazo[4,5-c]pyridine-2-carboxamide]	94		6.3		13.9
COc1nc(-c2cccc(-c3cccc(NC(=O)c4nc5c(n4C)CCN(C)C5)c3Cl)c2Cl)ncc1CN[C@H]1CCOC[C@@H]1O (relative stereo) [Embodiment 228, N-(2,2′-Dichloro-3′-(5-(((trans-3-hydroxytetrahydro-2H-pyran-4-yl)amino)methyl)-4-methoxypyrimidin-2-yl)-[1,1′-biphenyl]-3-yl)-1,5-dimethyl-4,5,6,7-tetrahydro-1H-imidazo[4,5-c]pyridine-2-carboxamide]	95		4.2	11.6	
COc1nc(-c2cccc(-c3cccc(NC(=O)c4nc5c(n4C)CCN(C)C5)c3Cl)c2Cl)ccc1CNC1CN(C(C)=O)C1 [Embodiment 179, N-(3′-(5-(((1-Acetylazetidin-3-yl)amino)methyl)-6-methoxypyridin-2-yl)-2,2′-dichloro-[1,1′-biphenyl]-3-yl)-1,5-dimethyl-4,5,6,7-tetrahydro-1H-imidazo[4,5-c]pyridine-2-carboxamide]	96		7.9	12.3	
COc1nc(-c2cccc(-c3cccc(NC(=O)c4nc5c(n4C)CCN(C)C5)c3Cl)c2Cl)ccc1CNC[C@@H](C)O [Embodiment 128, (R)—N-(2,2′-Dichloro-3′-(5-(((2-hydroxypropyl)amino)methyl)-6-methoxypyridin-2-yl)-[1,1′-biphenyl]-3-yl)-1,5-dimethyl-4,5,6,7-tetrahydro-1H-imidazo[4,5-c]pyridine-2-carboxamide]	98	0.6	6.5	16.8	
COc1nc(-c2cccc(-c3cccc(NC(=O)c4nc5c(n4C)CCN(C)C5)c3Cl)c2Cl)ccc1CN1CC2(CCN(C(C)=O)CC2)C1 [Embodiment 194, N-(3′-(5-((7-Acetyl-2,7-diazaspiro[3.5]nonan-2-yl)methyl)-6-methoxypyridin-2-yl)-2,2′-dichloro-[1,1′-biphenyl]-3-yl)-1,5-dimethyl-4,5,6,7-tetrahydro-1H-imidazo[4,5-c]pyridine-2-carboxamide]	96		7.9	13.2	
COc1nc(-c2cccc(-c3cccc(NC(=O)c4nc5c(n4C)CCN(C)C5)c3Cl)c2Cl)ccc1CN1CC2(C1)CN(C(=O)C(F)F)C2 [Embodiment 190, N-(2,2′-Dichloro-3′-(5-((6-(2,2-difluoroacetyl)-2,6-diazaspiro[3.3]heptan-2-yl)methyl)-6-methoxypyridin-2-yl)-[1,1′-biphenyl]-3-yl)-1,5-dimethyl-4,5,6,7-tetrahydro-1H-imidazo[4,5-c]pyridine-2-carboxamide]	97	0.8	8.5	14	
COc1nc(-c2cccc(-c3cccc(NC(=O)c4nc5c(n4C)CCN(C)C5)c3Cl)c2Cl)ccc1CN1CCN(C(=O)CC#N)CC1 [Embodiment 198, N-(2,2′-Dichloro-3′-(5-((4-(2-cyanoacetyl)piperazin-1-yl)methyl)-6-methoxypyridin-2-yl)-[1,1′-biphenyl]-3-yl)-1,5-dimethyl-4,5,6,7-tetrahydro-1H-imidazo[4,5-c]pyridine-2-carboxamide]	94		9.6	12	
COc1nc(-c2cccc(-c3cccc(NC(=O)c4nc5c(n4C)CCN(C)C5)c3Cl)c2Cl)ccc1CN1CC2(CC(O)C2)C1 [Embodiment 185, N-(2,2′-Dichloro-3′-(5-((6-hydroxy-2-azaspiro[3.3]heptan-2-yl)methyl)-6-methoxypyridin-2-yl)-[1,1′-biphenyl]-3-yl)-1,5-dimethyl-4,5,6,7-tetrahydro-1H-imidazo[4,5-c]pyridine-2-carboxamide]	97	0.7	5.3	20.9	
COc1nc(-c2cccc(-c3cccc(NC(=O)c4nc5c(n4C)CCN(C)C5)c3Cl)c2Cl)ccc1CNC1CCOCC1C(=O)O (centres unmarked) [Embodiment 214, 4-(((6-(2,2′-Dichloro-3′-(1,5-dimethyl-4,5,6,7-tetrahydro-1H-imidazo[4,5-c]pyridin-2-carboxamido)-[1,1′-biphenyl]-3-yl)-2-methoxypyridin-3-yl)methyl)amino)tetrahydro-2H-pyran-3-carboxylic Acid]	93		5.3	10.2	
COc1cc(-c2cccc(-c3cccc(NC(=O)c4nc5c(n4C)CCN(C)C5)c3Cl)c2Cl)ccc1CNCCO [Embodiment 157, N-(2,2′-Dichloro-4″-(((2-hydroxyethyl)amino)methyl)-3″-methoxy-[1,1′:3′,1″-terphenyl]-3-yl)-1,5-dimethyl-4,5,6,7-tetrahydro-1H-imidazo[4,5-c]pyridine-2-carboxamide]	95	1.5	4	11.2	

The next lines start with results.

Emax [2] [%]	IC50 [2] [nM]	IC50 [3] [nM]	ΔTm at 10 µM [1, 4] [°C]	SMILES	ΔTm at 10 µM [1] [°C]
94		5.4	11	COc1nc(-c2cccc(-c3cccc(NC(=O)c4nc5c(n4C4CC4)CCN(C)C5)c3Cl)c2Cl)ccc1CN1CC2(CC(NC(C)=O)C2)C1 [Embodiment 246, N-(3′-(5-((6-Acetylamino-2-azaspiro[3.3]heptan-2-yl)methyl)-6-methoxypyridin-2-yl)-2,2′-dichloro-[1,1′-biphenyl]-3-yl)-1-cyclopropyl-5-methyl-4,5,6,7-tetrahydro-1H-imidazo[4,5-c]pyridine-2-carboxamide]	
94		5.2	11.6	CCn1c(C(=O)Nc2cccc(-c3cccc(-c4ccc(CN5CC6(COC6)C5)c(OC)n4)c3Cl)c2Cl)nc2c1CCN(C)C2 [Embodiment 237, N-(3′-(5-((2-Oxa-6-azaspiro[3.3]heptan-6-yl)methyl)-6-methoxypyridin-2-yl)-2,2′-dichloro-[1,1′-biphenyl]-3-yl)-1-ethyl-5-methyl-4,5,6,7-tetrahydro-1H-imidazo[4,5-c]pyridine-2-carboxamide]	
93		4.4	10.2	COc1nc(-c2cccc(-c3cccc(NC(=O)c4nc5c(n4C4CC4)CCN(C)C5)c3Cl)c2Cl)ccc1CN1CC(CO)C1 [Embodiment 245, 1-Cyclopropyl-N-(2,2′-dichloro-3′-(5-((3-(hydroxymethyl)azetidin-1-yl)methyl)-6-methoxypyridin-2-yl)-[1,1′-biphenyl]-3-yl)-5-methyl-4,5,6,7-tetrahydro-1H-imidazo[4,5-c]pyridine-2-carboxamide]	
97		2.8	13	CCn1c(C(=O)Nc2cccc(-c3cccc(-c4ccc(CN5CC(C(=O)O)C5)c(OC)n4)c3Cl)c2Cl)nc2c1CCN(C)C2 [Embodiment 240, 1-((6-(2,2′-Dichloro-3′-(1-ethyl-5-methyl-4,5,6,7-tetrahydro-1H-imidazo[4,5-c]pyridine-2-carboxamido)-[1,1′-biphenyl]-3-yl)-2-methoxypyridin-3-yl)methyl)azetidine-3-carboxylic Acid]	
93		6.4	11.3	CCn1c(C(=O)Nc2cccc(-c3cccc(-c4ccc(CN[C@H]5CCOC[C@@H]5O)c(OC)n4)c3Cl)c2Cl)nc2c1CCN(C)C2 (relative stereo) [Embodiment 235, N-(2,2′-Dichloro-3′-(5-(((trans-3-hydroxytetrahydro-2H-pyran-4-yl)amino)methyl)-6-methoxypyridin-2-yl)-[1,1′-biphenyl]-3-yl)-1-ethyl-5-methyl-4,5,6,7-tetrahydro-1H-imidazo[4,5-c]pyridine-2-carboxamide]	
